According to PubChem BioAssay (NCI):
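96-well plates; 48 h exposure; 5 concentrations. Endpoints by linear interpolation between flanking doses. Not reached: highest tested concentration assigned. The concentration for full growth arrest is given as TGI.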

Legend:
Test in all cases: NCI tumour cell line growth inhibition, 48 h
SR leukemia = tested on: SR leukemia
MDA-MB-435 = tested on: MDA-MB-435
OVCAR-4 ovarian = tested on: OVCAR-4 ovarian
OVCAR-3 ovarian = tested on: OVCAR-3 ovarian
786-0 renal = tested on: 786-0 renal
MOLT-4 leukemia = tested on: MOLT-4 leukemia
SW-620 colon = tested on: SW-620 colon
HOP-62 NSCLC = tested on: HOP-62 NSCLC
SF-539 CNS = tested on: SF-539 CNS
SK-OV-3 ovarian = tested on: SK-OV-3 ovarian
HCT-15 colon = tested on: HCT-15 colon
HT29 colon = tested on: HT29 colon
KM12 colon = tested on: KM12 colon
LOX IMVI melanoma = tested on: LOX IMVI melanoma
UO-31 renal = tested on: UO-31 renal
SK-MEL-2 melanoma = tested on: SK-MEL-2 melanoma
SK-MEL-28 melanoma = tested on: SK-MEL-28 melanoma
PC-3 prostate = tested on: PC-3 prostate
OVCAR-5 ovarian = tested on: OVCAR-5 ovarian
BT-549 breast = tested on: BT-549 breast
DU-145 prostate = tested on: DU-145 prostate
A549 NSCLC = tested on: A549 NSCLC
NCI-H23 lung = tested on: NCI-H23 lung
SF-295 CNS = tested on: SF-295 CNS
SN12C renal = tested on: SN12C renal
SNB-19 CNS = tested on: SNB-19 CNS
UACC-62 melanoma = tested on: UACC-62 melanoma
SK-MEL-5 melanoma = tested on: SK-MEL-5 melanoma
MDA-N = tested on: MDA-N
HOP-92 NSCLC = tested on: HOP-92 NSCLC
COLO 205 colon = tested on: COLO 205 colon
CAKI-1 renal = tested on: CAKI-1 renal
A498 renal = tested on: A498 renal
M14 melanoma = tested on: M14 melanoma
NCI-H460 lung = tested on: NCI-H460 lung
TK-10 renal = tested on: TK-10 renal
IGROV1 ovarian = tested on: IGROV1 ovarian
UACC-257 melanoma = tested on: UACC-257 melanoma
RPMI-8226 leukemia = tested on: RPMI-8226 leukemia
HCT-116 colon = tested on: HCT-116 colon
T-47D breast = tested on: T-47D breast
MALME-3M melanoma = tested on: MALME-3M melanoma
K-562 leukemia = tested on: K-562 leukemia
NCI-H226 lung = tested on: NCI-H226 lung
ACHN renal = tested on: ACHN renal
U251 CNS = tested on: U251 CNS
SF-268 CNS = tested on: SF-268 CNS
EKVX NSCLC = tested on: EKVX NSCLC
MDA-MB-231 breast = tested on: MDA-MB-231 breast
RXF 393 renal = tested on: RXF 393 renal
SNB-75 CNS = tested on: SNB-75 CNS
OVCAR-8 ovarian = tested on: OVCAR-8 ovarian
HCC-2998 colon = tested on: HCC-2998 colon
HS 578T breast = tested on: HS 578T breast
MCF7 breast = tested on: MCF7 breast
NCI/ADR-RES ovarian = tested on: NCI/ADR-RES ovarian
CCRF-CEM leukemia = tested on: CCRF-CEM leukemia
HL-60(TB) leukemia = tested on: HL-60(TB) leukemia
NCI-H522 lung = tested on: NCI-H522 lung

O=c1c(=O)c2cscc2c1=O
TGI (SR leukemia): 1.1 µM | TGI (MDA-MB-435): 9.85 µM | TGI (OVCAR-4 ovarian): 11.1 µM | TGI (OVCAR-3 ovarian): 15.1 µM | TGI (786-0 renal): 10.1 µM | TGI (MOLT-4 leukemia): 10 µM | TGI (SW-620 colon): 11.2 µM | TGI (HOP-62 NSCLC): 10.8 µM | TGI (SF-539 CNS): 9.07 µM | TGI (SK-OV-3 ovarian): > 25 µM | TGI (HCT-15 colon): 14.1 µM | TGI (HT29 colon): 10.6 µM | TGI (KM12 colon): 12.7 µM | TGI (LOX IMVI melanoma): 10 µM | TGI (UO-31 renal): 9.6 µM | TGI (SK-MEL-2 melanoma): 9.31 µM | TGI (SK-MEL-28 melanoma): 9.37 µM | TGI (PC-3 prostate): 8.6 µM | TGI (OVCAR-5 ovarian): 9.61 µM | TGI (BT-549 breast): 8.72 µM | TGI (DU-145 prostate): 11.4 µM | TGI (A549 NSCLC): > 25 µM | TGI (NCI-H23 lung): 12.3 µM | TGI (SF-295 CNS): > 25 µM | TGI (SN12C renal): 13.3 µM | TGI (SNB-19 CNS): 15.2 µM | TGI (UACC-62 melanoma): 8.75 µM | TGI (SK-MEL-5 melanoma): 7.89 µM | TGI (MDA-N): 9.72 µM | TGI (HOP-92 NSCLC): 11.2 µM | TGI (COLO 205 colon): 8.61 µM | TGI (CAKI-1 renal): 8.49 µM | TGI (A498 renal): > 25 µM | TGI (M14 melanoma): 8.85 µM | TGI (NCI-H460 lung): 23.3 µM | TGI (TK-10 renal): 8.04 µM | TGI (IGROV1 ovarian): 8.4 µM | TGI (UACC-257 melanoma): 7.96 µM | TGI (RPMI-8226 leukemia): 12.1 µM | TGI (HCT-116 colon): 9.66 µM | TGI (T-47D breast): 11.8 µM | TGI (MALME-3M melanoma): 8.39 µM | TGI (K-562 leukemia): 6.5 µM | TGI (NCI-H226 lung): 10.5 µM | TGI (ACHN renal): 8.37 µM | TGI (U251 CNS): 9.19 µM | TGI (SF-268 CNS): 8.82 µM | TGI (EKVX NSCLC): 10.7 µM | TGI (MDA-MB-231 breast): 10 µM | TGI (RXF 393 renal): 9.2 µM | TGI (SNB-75 CNS): 8.37 µM | TGI (OVCAR-8 ovarian): 16.4 µM | TGI (HCC-2998 colon): 6.44 µM | TGI (HS 578T breast): > 25 µM | TGI (MCF7 breast): 15.3 µM | TGI (NCI/ADR-RES ovarian): > 25 µM

CCN=c1nc2sc3c(c2c(NC(=S)NCC)s1)CCN(N1CCc2c(sc4nc(=NCC)sc(NC(=S)NCC)c24)C1)C3
TGI (SR leukemia): > 100 µM | TGI (MDA-MB-435): > 100 µM | TGI (OVCAR-4 ovarian): > 100 µM | TGI (OVCAR-3 ovarian): > 100 µM | TGI (786-0 renal): > 100 µM | TGI (MOLT-4 leukemia): > 100 µM | TGI (SW-620 colon): > 100 µM | TGI (HOP-62 NSCLC): > 100 µM | TGI (SF-539 CNS): 39.5 µM | TGI (SK-OV-3 ovarian): > 100 µM | TGI (HCT-15 colon): > 100 µM | TGI (HT29 colon): > 100 µM | TGI (KM12 colon): > 100 µM | TGI (LOX IMVI melanoma): > 100 µM | TGI (UO-31 renal): > 100 µM | TGI (SK-MEL-2 melanoma): > 100 µM | TGI (SK-MEL-28 melanoma): > 100 µM | TGI (PC-3 prostate): > 100 µM | TGI (OVCAR-5 ovarian): > 100 µM | TGI (BT-549 breast): > 100 µM | TGI (DU-145 prostate): > 100 µM | TGI (CCRF-CEM leukemia): > 100 µM | TGI (A549 NSCLC): > 100 µM | TGI (NCI-H23 lung): > 100 µM | TGI (SF-295 CNS): > 100 µM | TGI (SN12C renal): > 100 µM | TGI (SNB-19 CNS): > 100 µM | TGI (UACC-62 melanoma): > 100 µM | TGI (SK-MEL-5 melanoma): > 100 µM | TGI (MDA-N): > 100 µM | TGI (HOP-92 NSCLC): 84.7 µM | TGI (COLO 205 colon): > 100 µM | TGI (CAKI-1 renal): > 100 µM | TGI (A498 renal): > 100 µM | TGI (M14 melanoma): > 100 µM | TGI (HL-60(TB) leukemia): > 100 µM | TGI (NCI-H460 lung): > 100 µM | TGI (TK-10 renal): > 100 µM | TGI (IGROV1 ovarian): > 100 µM | TGI (UACC-257 melanoma): > 100 µM | TGI (HCT-116 colon): 52.3 µM | TGI (T-47D breast): > 100 µM | TGI (MALME-3M melanoma): > 100 µM | TGI (K-562 leukemia): > 100 µM | TGI (NCI-H226 lung): > 100 µM | TGI (ACHN renal): > 100 µM | TGI (U251 CNS): > 100 µM | TGI (SF-268 CNS): > 100 µM | TGI (EKVX NSCLC): > 100 µM | TGI (MDA-MB-231 breast): 82.6 µM | TGI (RXF 393 renal): 53.2 µM | TGI (SNB-75 CNS): > 100 µM | TGI (OVCAR-8 ovarian): > 100 µM | TGI (HCC-2998 colon): > 100 µM | TGI (HS 578T breast): > 100 µM | TGI (NCI-H522 lung): > 100 µM | TGI (MCF7 breast): > 100 µM | TGI (NCI/ADR-RES ovarian): > 100 µM
